Laboratory results reported in publication PMC6874406 (Journal of photochemistry and photobiology. A, Chemistry, 2019).
Where two headings read alike, the source gives them in different places.

Assays:
[1] = biological target: T1, human serum albumin (HSA) (Homo sapiens, UniProt P02768); test: fluorescence titration; format: binding
[2] = biological target: T1, human serum albumin (HSA); test: fluorescence titration; format: binding; remark: listed apart in the source

T1 sequence (P02768 25-609): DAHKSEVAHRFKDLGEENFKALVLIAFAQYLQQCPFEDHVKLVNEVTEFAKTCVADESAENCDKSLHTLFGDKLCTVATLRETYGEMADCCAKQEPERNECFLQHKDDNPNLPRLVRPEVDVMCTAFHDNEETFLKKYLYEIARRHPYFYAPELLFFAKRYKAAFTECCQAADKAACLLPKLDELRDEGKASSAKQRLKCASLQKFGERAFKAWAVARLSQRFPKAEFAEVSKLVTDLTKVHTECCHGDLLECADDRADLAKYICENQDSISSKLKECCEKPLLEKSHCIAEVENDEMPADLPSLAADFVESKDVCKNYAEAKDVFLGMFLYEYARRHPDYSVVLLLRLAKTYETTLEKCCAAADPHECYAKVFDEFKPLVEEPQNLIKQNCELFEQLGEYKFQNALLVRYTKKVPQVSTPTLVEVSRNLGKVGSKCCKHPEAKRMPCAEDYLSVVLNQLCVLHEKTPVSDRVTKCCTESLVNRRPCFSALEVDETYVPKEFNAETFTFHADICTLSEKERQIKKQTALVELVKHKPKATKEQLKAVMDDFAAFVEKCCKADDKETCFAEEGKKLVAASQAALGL

Kd [1] [µM]	Kd [2] [µM]	SMILES
6.67	–	COc1cc(/C=C/C2=C(C#N)C(=C(C#N)C#N)OC2(C)C)cc(OC)c1O [compound 1, (E)-2-(3-cyano-4-(4-hydroxy-3,5-dimethoxystyryl)-5,5-dimethylfuran-2(5H)-ylidene)malononitrile]
–	5.26	CC1(C)OC(=C(C#N)C#N)C(C#N)=C1/C=C/c1ccc(O)cc1 [compound 2, fluorophore 2]
